Assay results taken from ChEMBL document CHEMBL5291721, “A preclinical secondary pharmacology resource illuminates target-adverse drug reaction associations of marketed drugs” (Nat Commun, 2023).

How the values were obtained:
[1] = target: T1, Amine oxidase [flavin-containing] A (Homo sapiens, UniProt P21397); type: functional
T1 sequence (P21397 whole entry): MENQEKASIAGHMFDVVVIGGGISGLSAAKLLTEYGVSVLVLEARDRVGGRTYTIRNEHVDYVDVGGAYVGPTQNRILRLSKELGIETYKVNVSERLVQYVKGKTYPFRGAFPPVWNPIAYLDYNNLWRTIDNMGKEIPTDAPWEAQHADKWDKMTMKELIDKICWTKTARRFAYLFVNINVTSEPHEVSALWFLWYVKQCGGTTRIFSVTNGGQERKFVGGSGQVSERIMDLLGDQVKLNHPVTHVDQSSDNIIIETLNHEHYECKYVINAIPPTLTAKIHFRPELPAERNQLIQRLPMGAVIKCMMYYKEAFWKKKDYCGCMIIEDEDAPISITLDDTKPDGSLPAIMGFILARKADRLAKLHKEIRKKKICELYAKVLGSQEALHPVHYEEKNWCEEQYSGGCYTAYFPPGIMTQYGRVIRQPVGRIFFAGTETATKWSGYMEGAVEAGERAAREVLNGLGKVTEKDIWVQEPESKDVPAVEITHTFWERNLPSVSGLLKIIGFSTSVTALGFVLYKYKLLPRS

Motilin receptor = Motilin receptor (Homo sapiens, UniProt O43193)
Bile salt export pump = Bile salt export pump (Homo sapiens, UniProt O95342); type: functional
[2] = target: 3',5'-cyclic-AMP phosphodiesterase 4D (Homo sapiens, UniProt Q08499); type: functional
[3] = target: T2, Type-1 angiotensin II receptor (Homo sapiens, UniProt P30556)
T2 sequence (P30556 whole entry): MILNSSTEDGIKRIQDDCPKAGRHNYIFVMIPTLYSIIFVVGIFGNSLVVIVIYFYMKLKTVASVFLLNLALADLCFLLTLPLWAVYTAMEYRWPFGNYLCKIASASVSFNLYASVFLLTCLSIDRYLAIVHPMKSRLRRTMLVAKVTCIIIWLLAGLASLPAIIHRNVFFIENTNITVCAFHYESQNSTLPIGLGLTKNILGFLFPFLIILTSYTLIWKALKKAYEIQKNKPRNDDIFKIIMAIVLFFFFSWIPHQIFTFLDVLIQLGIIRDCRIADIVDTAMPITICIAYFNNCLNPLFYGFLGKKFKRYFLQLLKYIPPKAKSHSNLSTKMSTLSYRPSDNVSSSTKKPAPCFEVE

[4] = target: 5-hydroxytryptamine receptor 2B (Homo sapiens, UniProt P41595); type: functional, cell-based
[5] = target: cGMP-inhibited 3',5'-cyclic phosphodiesterase 3A (Homo sapiens, UniProt Q14432); type: functional
[6] = target: Neuronal acetylcholine receptor subunit alpha-4 (Homo sapiens, UniProt P43681)
D(3) dopamine receptor = D(3) dopamine receptor (Homo sapiens, UniProt P35462)
[7] = target: Sodium-dependent noradrenaline transporter (Homo sapiens, UniProt P23975)
[8] = target: T3, 5-hydroxytryptamine receptor 3A (Homo sapiens, UniProt P46098); type: functional
T3 sequence (P46098 whole entry): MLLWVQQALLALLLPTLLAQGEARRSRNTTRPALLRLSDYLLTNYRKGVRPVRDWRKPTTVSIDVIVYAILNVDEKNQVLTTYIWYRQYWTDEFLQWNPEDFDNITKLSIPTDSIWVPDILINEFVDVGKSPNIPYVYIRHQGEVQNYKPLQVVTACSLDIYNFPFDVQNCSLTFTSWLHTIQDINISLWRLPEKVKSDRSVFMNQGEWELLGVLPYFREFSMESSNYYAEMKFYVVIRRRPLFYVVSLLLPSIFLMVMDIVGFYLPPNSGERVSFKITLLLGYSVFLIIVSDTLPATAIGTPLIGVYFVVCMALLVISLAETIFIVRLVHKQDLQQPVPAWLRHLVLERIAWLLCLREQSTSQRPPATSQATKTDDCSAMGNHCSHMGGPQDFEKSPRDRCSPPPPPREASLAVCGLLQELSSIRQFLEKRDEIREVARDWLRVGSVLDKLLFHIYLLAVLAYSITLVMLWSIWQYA

[9] = target: Delta-type opioid receptor (Homo sapiens, UniProt P41143)
Adenosine receptor A3 = target: T4, Adenosine receptor A3 (Homo sapiens, UniProt P0DMS8)
T4 sequence (P0DMS8 whole entry): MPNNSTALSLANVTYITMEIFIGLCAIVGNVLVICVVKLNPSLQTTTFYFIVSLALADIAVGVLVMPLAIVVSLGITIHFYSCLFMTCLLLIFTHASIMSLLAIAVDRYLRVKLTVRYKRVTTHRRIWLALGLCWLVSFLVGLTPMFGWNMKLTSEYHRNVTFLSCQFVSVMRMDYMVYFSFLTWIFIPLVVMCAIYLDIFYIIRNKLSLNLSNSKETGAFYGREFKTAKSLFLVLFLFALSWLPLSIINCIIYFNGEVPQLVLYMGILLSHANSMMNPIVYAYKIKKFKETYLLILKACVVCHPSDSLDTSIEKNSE

[10] = target: T5, Alpha-2C adrenergic receptor (Homo sapiens, UniProt P18825); type: functional
T5 sequence (P18825 whole entry): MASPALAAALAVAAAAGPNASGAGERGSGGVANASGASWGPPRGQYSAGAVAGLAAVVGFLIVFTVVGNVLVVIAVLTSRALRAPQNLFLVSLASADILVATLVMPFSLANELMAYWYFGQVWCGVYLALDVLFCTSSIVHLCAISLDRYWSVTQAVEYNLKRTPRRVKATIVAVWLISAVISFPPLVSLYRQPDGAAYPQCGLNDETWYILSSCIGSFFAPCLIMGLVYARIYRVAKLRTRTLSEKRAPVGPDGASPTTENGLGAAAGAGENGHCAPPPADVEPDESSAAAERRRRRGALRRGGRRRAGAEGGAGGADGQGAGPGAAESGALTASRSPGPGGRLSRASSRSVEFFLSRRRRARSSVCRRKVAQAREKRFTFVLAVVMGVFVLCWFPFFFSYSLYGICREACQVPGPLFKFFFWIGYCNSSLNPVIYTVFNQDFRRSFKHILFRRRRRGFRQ
Note: assay procedure not described here.

5-hydroxytryptamine receptor 2B, sequence (P41595 whole entry): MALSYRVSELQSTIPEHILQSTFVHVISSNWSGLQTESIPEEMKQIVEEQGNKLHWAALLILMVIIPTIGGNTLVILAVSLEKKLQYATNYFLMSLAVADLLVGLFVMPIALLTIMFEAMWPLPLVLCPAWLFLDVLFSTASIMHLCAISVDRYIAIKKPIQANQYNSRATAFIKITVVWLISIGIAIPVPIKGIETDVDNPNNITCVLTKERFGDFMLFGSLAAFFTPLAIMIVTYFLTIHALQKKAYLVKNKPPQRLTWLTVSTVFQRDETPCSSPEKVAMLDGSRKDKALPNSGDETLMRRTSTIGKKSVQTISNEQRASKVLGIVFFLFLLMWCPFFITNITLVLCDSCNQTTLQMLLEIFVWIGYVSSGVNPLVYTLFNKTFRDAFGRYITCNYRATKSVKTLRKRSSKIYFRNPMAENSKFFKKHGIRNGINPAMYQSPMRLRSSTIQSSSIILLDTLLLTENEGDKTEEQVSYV
cGMP-inhibited 3',5'-cyclic phosphodiesterase 3A, sequence (Q14432 whole entry): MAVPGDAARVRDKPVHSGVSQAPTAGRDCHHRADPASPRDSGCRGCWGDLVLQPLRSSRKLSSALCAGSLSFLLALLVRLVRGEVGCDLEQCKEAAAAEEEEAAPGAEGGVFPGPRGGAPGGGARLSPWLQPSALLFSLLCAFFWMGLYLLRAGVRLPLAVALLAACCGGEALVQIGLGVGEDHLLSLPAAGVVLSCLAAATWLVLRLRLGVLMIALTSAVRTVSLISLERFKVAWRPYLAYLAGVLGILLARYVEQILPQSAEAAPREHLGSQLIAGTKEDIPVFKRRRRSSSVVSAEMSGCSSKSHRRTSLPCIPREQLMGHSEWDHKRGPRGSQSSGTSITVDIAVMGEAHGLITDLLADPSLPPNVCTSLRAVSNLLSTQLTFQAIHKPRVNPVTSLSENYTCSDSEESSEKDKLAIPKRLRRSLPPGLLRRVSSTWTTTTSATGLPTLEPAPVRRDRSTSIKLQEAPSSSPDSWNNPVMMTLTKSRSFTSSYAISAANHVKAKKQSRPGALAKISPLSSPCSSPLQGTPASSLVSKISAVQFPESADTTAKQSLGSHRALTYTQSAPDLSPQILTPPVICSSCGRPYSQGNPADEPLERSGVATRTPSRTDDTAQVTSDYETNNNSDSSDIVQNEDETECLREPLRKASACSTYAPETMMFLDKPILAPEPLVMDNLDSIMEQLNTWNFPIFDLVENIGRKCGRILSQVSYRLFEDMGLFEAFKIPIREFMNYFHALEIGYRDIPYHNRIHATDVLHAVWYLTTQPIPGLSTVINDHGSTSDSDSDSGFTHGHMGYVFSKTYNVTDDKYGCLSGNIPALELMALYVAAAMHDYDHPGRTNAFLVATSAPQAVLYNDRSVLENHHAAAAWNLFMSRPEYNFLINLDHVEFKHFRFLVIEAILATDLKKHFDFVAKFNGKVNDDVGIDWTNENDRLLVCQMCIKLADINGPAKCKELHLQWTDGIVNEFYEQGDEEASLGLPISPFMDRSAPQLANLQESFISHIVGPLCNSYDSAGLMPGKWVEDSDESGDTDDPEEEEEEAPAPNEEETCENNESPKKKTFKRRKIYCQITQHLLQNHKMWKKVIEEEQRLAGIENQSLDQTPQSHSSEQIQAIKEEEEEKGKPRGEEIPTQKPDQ
Neuronal acetylcholine receptor subunit alpha-4, sequence (P43681 whole entry): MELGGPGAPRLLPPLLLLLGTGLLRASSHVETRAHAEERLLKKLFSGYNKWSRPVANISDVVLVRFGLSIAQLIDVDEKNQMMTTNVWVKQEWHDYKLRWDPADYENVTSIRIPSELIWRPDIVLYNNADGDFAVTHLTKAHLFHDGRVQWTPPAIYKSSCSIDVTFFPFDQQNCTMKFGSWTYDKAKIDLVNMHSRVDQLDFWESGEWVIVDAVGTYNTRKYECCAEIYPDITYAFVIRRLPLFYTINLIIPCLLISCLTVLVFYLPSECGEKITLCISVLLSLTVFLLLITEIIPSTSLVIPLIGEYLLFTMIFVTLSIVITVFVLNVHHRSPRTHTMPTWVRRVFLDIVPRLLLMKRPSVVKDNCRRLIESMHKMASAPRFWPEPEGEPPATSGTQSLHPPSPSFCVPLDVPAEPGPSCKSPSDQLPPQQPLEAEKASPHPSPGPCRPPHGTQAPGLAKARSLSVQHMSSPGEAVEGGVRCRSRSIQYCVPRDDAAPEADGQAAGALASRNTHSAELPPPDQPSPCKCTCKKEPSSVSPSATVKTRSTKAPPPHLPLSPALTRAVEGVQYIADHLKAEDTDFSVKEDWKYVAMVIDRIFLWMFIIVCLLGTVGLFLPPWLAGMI
D(3) dopamine receptor, sequence (P35462 whole entry): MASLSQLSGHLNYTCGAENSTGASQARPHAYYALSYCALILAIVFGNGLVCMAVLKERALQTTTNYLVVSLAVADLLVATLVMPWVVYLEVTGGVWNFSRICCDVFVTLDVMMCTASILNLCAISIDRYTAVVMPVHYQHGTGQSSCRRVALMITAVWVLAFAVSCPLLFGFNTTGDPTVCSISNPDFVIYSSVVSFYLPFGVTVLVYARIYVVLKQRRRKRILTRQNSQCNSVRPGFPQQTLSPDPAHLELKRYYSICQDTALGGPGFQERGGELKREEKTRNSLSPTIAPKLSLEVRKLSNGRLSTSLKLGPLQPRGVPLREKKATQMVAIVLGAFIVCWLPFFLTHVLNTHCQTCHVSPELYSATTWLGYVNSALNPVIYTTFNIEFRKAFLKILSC
Motilin receptor, sequence (O43193 whole entry): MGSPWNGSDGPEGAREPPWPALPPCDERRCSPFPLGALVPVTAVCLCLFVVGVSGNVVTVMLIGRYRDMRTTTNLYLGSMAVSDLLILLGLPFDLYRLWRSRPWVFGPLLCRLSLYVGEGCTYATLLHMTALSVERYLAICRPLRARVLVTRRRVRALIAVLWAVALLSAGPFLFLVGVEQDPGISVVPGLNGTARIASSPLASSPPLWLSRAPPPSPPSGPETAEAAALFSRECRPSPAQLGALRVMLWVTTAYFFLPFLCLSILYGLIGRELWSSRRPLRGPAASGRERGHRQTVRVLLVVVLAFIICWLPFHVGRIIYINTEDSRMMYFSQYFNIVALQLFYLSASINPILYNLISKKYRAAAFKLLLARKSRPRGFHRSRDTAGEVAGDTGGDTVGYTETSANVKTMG
Delta-type opioid receptor, sequence (P41143 whole entry): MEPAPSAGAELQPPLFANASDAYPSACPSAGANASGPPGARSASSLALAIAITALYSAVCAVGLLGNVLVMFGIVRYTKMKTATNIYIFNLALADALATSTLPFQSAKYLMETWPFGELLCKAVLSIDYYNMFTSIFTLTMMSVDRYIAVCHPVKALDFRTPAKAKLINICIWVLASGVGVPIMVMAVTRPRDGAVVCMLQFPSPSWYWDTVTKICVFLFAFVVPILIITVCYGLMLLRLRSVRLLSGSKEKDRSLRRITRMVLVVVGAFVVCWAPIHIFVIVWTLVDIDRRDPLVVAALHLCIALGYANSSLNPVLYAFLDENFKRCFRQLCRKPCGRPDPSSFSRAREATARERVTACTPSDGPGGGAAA
Bile salt export pump, sequence (O95342 whole entry): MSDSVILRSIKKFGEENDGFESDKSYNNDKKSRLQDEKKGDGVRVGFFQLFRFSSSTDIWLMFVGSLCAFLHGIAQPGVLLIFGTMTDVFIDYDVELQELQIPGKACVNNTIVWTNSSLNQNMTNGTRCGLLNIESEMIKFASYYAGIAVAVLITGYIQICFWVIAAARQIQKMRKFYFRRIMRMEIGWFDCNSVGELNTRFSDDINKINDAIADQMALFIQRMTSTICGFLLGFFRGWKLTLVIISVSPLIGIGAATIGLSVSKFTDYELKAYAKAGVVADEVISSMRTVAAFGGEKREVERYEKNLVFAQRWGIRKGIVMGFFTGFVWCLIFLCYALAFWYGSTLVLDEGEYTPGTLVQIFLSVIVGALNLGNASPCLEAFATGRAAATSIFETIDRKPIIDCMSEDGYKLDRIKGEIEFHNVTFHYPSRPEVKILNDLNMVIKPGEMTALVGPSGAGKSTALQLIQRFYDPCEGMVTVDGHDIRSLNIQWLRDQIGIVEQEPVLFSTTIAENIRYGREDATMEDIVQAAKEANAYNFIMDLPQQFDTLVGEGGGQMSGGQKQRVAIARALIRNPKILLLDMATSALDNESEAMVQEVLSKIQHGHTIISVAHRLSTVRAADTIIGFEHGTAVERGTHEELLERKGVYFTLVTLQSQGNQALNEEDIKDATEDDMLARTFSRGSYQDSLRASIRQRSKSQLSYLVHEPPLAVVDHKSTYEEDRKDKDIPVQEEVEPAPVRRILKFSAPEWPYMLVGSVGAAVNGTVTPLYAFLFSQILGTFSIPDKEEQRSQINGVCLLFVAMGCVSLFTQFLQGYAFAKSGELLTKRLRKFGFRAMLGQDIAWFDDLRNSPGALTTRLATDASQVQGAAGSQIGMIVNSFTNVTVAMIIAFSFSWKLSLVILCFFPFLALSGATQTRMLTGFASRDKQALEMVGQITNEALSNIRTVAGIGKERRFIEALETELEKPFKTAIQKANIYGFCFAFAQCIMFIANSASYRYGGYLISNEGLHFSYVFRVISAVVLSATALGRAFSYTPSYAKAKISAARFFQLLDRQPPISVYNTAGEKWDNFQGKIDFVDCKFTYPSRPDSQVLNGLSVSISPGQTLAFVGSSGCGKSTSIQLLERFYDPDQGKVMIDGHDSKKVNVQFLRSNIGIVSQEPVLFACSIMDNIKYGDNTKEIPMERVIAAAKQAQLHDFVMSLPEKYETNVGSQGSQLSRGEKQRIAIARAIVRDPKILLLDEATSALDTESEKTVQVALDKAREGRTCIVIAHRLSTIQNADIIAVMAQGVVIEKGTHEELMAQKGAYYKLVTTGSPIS

SMILES | AC50 [1] [µM] | AC50 (Motilin receptor) [µM] | AC50 (Bile salt export pump) [µM] | AC50 [2] [µM] | AC50 [3] [µM] | AC50 [4] [µM] | AC50 [5] [µM] | AC50 [6] [µM] | AC50 (D(3) dopamine receptor) [µM] | AC50 [7] [µM] | AC50 [8] [µM] | AC50 [9] [µM] | AC50 (Adenosine receptor A3) [µM] | AC50 [10] [µM]
Nc1nnc(-c2cccc(Cl)c2Cl)c(N)n1 [LAMOTRIGINE] | 16 | > 10 | > 300 | > 30 | > 30 | > 10 | 2.1 | > 10 | > 10 | > 10 | > 30 | > 30 | > 30 | > 10
CCC1(c2ccccc2)C(=O)NCNC1=O [PRIMIDONE] | > 10 | > 10 | > 300 | > 30 | > 30 | > 10 | > 30 | > 10 | > 30 | > 10 | > 30 | > 30 | > 10 | > 10
CO[C@@H]1[C@@H](OC(N)=O)[C@@H](O)[C@H](Oc2ccc3c(O)c(NC(=O)c4ccc(O)c(CC=C(C)C)c4)c(=O)oc3c2C)OC1(C)C [NOVOBIOCIN] | > 30 | > 30 | 220 | > 30 | > 30 | > 30 | > 30 | > 30 | > 30 | > 30 | > 30 | > 30 | > 30 | > 30
CCOCC(O)COc1ccc(NC(=O)CC[S+](C)C)cc1 (stereo unspecified) | > 30 | > 30 | > 300 | > 30 | > 30 | > 30 | > 30 | > 30 | > 30 | > 30 | > 30 | > 30 | > 30 | > 30
O=C(c1ccccc1)c1ccc2n1CCC2C(=O)O (stereo unspecified) [KETOROLAC] | > 30 | > 10 | > 300 | > 30 | > 10 | > 30 | > 30 | > 10 | > 30 | > 10 | > 30 | > 30 | > 10 | > 30
C[C@@H](O)[C@H]1C(=O)N2C(C(=O)O)=C(SCCN=CN)C[C@H]12 [IMIPENEM ANHYDROUS] | > 300 | > 300 | > 300 | > 300 | > 300 | > 300 | > 300 | > 300 | > 300 | > 300 | > 300 | > 300 | 180 | > 300
NCC1(CC(=O)O)CCCCC1 [GABAPENTIN] | > 30 | > 30 | > 300 | > 30 | > 30 | > 30 | > 30 | > 30 | > 30 | > 30 | > 30 | > 30 | > 30 | > 30
CN(C)CCc1c[nH]c2ccc(CS(=O)(=O)N3CCCC3)cc12 [ALMOTRIPTAN] | > 30 | > 30 | > 300 | > 30 | > 30 | 11 | > 30 | > 30 | > 30 | > 30 | > 30 | > 30 | > 30 | > 30
C[C@]12CCC(=O)C=C1CC[C@H]1[C@@H]3CC[C@](O)(C(=O)CO)[C@@]3(C)C[C@H](O)[C@@]12F [FLUDROCORTISONE] | > 10 | > 10 | > 300 | > 30 | > 30 | > 10 | > 30 | > 10 | > 30 | > 30 | > 30 | > 30 | > 30 | > 10
